How the values were obtained:
[1] = target: KRAS (G12D)::CRAF protein::protein interaction (Homo sapiens (Human), UniProt P01116, G12D); assay: KRAS TR-FRET assay (KRAS G12D::CRAF, GTP); format: binding
Method: (§1) This assay measures the inhibitory effect of compounds on KRAS::CRAF protein::protein interactions in the presence of GTP using Time-resolved fluorescence energy transfer (TR-FRET).
(§2) The following wildtype or mutant alleles of KRAS and CRAF protein have been used at the given concentrations:
KRAS (G12D) 1-169, N-terminal 6His-tag, C-terminal avi-tag (Xtal BioStructures, Inc.); final assay concentration 15 nM,
(§3) CRAF Ras binding domain, GST-tag, TEV cleavage site (Boehringer Ingelheim in house protein prep); final assay concentration 15 nM.
(§4) Test compounds dissolved in DMSO were dispensed onto assay plates (Proxiplate 384 PLUS, white, PerkinElmer; 6008289) using an Access Labcyte Workstation with the Labcyte Echo 55x. For the chosen highest assay concentration of 100 μM, 150 nl of compound solution was transferred from a 10 mM DMSO compound stock solution. A series of eleven fivefold dilutions per compound was transferred to the assay plate, compound dilutions were tested in duplicates. DMSO was added as backfill to a total volume of 150 nl.
(§5) The assay runs on a fully automated robotic system. To 150 nl of compound dilution 15 μl of a mix including the respective KRAS allele, CRAF (e.g. KRAS (G12D)::CRAF; final assay concentrations see above), GTP nucleotide (Sigma G8877; final assay concentration 10 μM), Lance Eu—W1024 labeled Streptavidin (PerkinElmer, Cat No AD0063; final assay concentration 1.5 nM) and Anti-GST surelight APC (PerkinElmer, Cat No AD0059G; final assay concentration 30 nM) in assay buffer (1×PBS, 0.1% BSA, 0.05% Tween 20) are added into columns 1-23 and 15 μL of the solution without the respective KRAS allele were added to row 24.
(§6) Plates are kept at room temperature in a darkened incubator. After 60 minutes incubation time the signal is measured in a PerkinElmer Envision HTS Multilabel Reader using the TR-FRET LANCE Ultra specs from PerkinElmer.
(§7) Each plate contains 16 wells of a negative control (diluted DMSO instead of test compound; w respective KRAS allele; column 23) and 16 wells of a positive control (diluted DMSO instead of test compound; w/o respective KRAS allele; column 24).
(§8) IC50 values were calculated and analyzed with Boehringer Ingelheim's MEGALAB 50 application using a 4 parametric logistic model.
(§9) Tables of example compounds disclosed herein contain IC50 values determined using the above assays (see Table 44).

[2] = target: KRAS (G12V)::CRAF protein::protein interaction (Homo sapiens (Human), UniProt P01116, C118S/G12V); assay: KRAS TR-FRET assay (KRAS G12V::CRAF, GTP); format: binding
Method: as §1, §2
KRAS (G12V) 1-169, C118S, N-terminal 6His-tag, C-terminal avi-tag (Boehringer Ingelheim in house protein prep); final assay concentration 15 nM.
as §3, §4, §5, §6, §7, §8, §9

[3] = target: KRAS (WT)::CRAF protein::protein interaction (Homo sapiens (Human), UniProt P01116); assay: KRAS TR-FRET assay (KRAS WT::CRAF, GTP); format: binding
Method: as §1, §2
KRAS (WT) 1-169, N-terminal 6His-tag, C-terminal avi-tag (Boehringer Ingelheim in house protein prep); final assay concentration 15 nM.
as §3, §4, §5, §6, §7, §8, §9

[4] = target: CYP3A4 (Homo sapiens (Human), UniProt P08684); assay: Mechanism based inhibition of CYP3A4 assay (MBI 3A4); format: in vitro ADME; conditions: human liver microsomes, 25 uM compound; hydroxy-midazolam formation after 30 min preincubation relative to 0 min
Method: The time dependent inhibition towards CYP3A4 is assayed in human liver microsomes (0.02 mg/mL) with midazolam (15 μM) as a substrate. The test compounds and water control (wells w/o test compound) are preincubated in presence of NADPH (1 mM) with human liver microsomes (0.2 mg/mL) at a concentration of 25 uM for 0 min and 30 min. After preincubation, the incubate is diluted 1:10 and the substrate midazolam is added for the main incubation (15 min). The main incubation is quenched with acetonitrile and the formation of hydroxy-midazolam is quantified via LC/MS-MS. The formation of hydroxy-midazolam from the 30 min preincubation relative to the formation from the 0 min preincubation is used as a readout. Values of less than 100% mean that the substrate midazolam is metabolized to a lower extent upon 30 min preincubation compared to 0 min preincubation. In general low effects upon 30 min preincubation are desired (corresponding to values close to 100%/not different to the values determined with water control).

[5] = Caco-2 assay (permeability and efflux ratio); format: in vitro ADME; conditions: human; for Papp A→B at 90 min, 10 μM: Caco-2 apical to basolateral permeability, pH 7.4, read-out: Caco PappAB; for efflux ratio at 90 min, 10 μM: pH 7.4, Caco-2 efflux ratio PappBA/PappAB, read-out: Caco ER
Method: (§10) The assay provides information on the potential of a compound to pass the cell membrane, on the extent of oral absorption as well as on whether the compound is actively transported by uptake and/or efflux transporters. Permeability measurements across polarized, confluent Caco-2 cell monolayers grown on permeable filter supports (Corning, catalog #3391) are used. 10 μM test compound solution in assay buffer (128.13 mM NaCl, 5.36 mM KCl, 1 mM MgSO4, 1.8 mM CaCl2), 4.17 mM NaHCO3, 1.19 mM Na2HPO4, 0.41 mM NaH2PO4, 15 mM 2-[4-(2-hydroxyethyl)piperazin-1-yl]ethanesulfonic acid (HEPES), 20 mM glucose, pH 7.4) was added to the donor compartment of the cell chamber containing a monolayer of Caco-2 cells in between the donor and the receiver compartment. The receiver and donor compartments contain 0.25% bovine serum albumine (BSA) in assay buffer. Passive diffusion and/or active transport of compounds across the monolayer is measured in both apical to basolateral (a-b) and basolateral to apical (b-a) direction. a-b permeability (PappAB) represents drug absorption from the intestine into the blood and b-a permeability (PappBA) drug secretion from the blood back into the intestine via both passive permeability as well as active transport mechanisms mediated by efflux and uptake transporters that are expressed on the Caco-2 cells. After a pre-incubation of 25-30 min at 37° C., at predefined time points (0, 30, 60 and 90 min), samples were taken from the receiver and donor compartment, respectively. Concentrations of test compounds in samples were measured by HPLC/MS/MS, samples from the donor compartment were diluted 1:50 (v:v) with assay buffer, samples from receiver compartment were measured without dilution.
(§11) Apparent permeabilities in a-b (PappAB) and b-a (PappBA) directions are calculated according to the formula:
(§12) [formula] • Vrec [mL]: buffer volume in receiver compartment • Cdon [μmol/mL]: concentration of test compound in donor compartment at t=0 • ΔCrec: difference between concentrations of test compound in receiver compartment at start and end of incubation time • Δt: Incubation time • Vrec·ΔCrec/Δt [μmol/min]: Amount of compound transferred to receiver compartment per time • A [cm^2]: filter surface
(§13) Caco-2 efflux ratios (ER) are calculated as the ratio of PappBA/PappAB.

[6] = tested on: Caco-2 cell monolayers; assay: Caco-2 assay (permeability and efflux ratio); format: in vitro ADME; conditions: 10 μM
Method: as §10, §11, §12, §13

KRAS (WT)::CRAF protein::protein interaction, sequence (P01116 other isoform, or with tags, fused parts or gaps): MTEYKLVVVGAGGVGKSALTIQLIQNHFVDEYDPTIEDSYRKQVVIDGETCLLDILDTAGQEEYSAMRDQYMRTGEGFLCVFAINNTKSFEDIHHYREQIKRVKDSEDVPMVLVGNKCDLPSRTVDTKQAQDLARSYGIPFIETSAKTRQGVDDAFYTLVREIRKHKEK
KRAS (G12V)::CRAF protein::protein interaction, sequence (P01116 other isoform, or with tags, fused parts or gaps G12V/C118S): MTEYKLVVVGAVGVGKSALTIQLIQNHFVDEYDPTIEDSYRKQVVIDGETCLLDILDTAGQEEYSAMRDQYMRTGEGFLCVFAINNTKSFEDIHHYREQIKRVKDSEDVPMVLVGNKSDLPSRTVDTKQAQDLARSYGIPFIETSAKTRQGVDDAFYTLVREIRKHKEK
CYP3A4, sequence (P08684 whole entry): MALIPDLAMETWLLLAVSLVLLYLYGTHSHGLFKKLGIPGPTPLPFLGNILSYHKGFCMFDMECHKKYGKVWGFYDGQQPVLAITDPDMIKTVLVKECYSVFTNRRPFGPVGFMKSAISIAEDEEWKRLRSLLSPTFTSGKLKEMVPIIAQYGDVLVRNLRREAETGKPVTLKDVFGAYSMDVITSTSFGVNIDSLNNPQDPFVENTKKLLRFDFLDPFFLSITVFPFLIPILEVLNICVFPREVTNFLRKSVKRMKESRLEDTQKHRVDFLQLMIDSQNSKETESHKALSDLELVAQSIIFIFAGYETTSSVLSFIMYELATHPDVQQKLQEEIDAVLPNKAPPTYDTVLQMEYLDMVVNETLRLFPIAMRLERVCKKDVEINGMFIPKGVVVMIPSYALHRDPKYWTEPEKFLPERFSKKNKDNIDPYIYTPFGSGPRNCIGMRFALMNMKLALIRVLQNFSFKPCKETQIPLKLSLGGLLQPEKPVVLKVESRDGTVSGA
KRAS (G12D)::CRAF protein::protein interaction, sequence (P01116 other isoform, or with tags, fused parts or gaps G12D): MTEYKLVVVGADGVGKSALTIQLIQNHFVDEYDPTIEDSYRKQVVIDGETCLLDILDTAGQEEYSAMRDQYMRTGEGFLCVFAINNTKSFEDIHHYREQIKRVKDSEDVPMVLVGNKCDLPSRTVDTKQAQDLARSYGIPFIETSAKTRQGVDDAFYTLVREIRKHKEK

Row | IC50 [1] [nM] | IC50 [2] [nM] | IC50 [3] [nM] | MBI 3A4 [4] [%] | Papp A→B at 90 min, 10 μM [5] [×10⁻⁶ cm/s] | efflux ratio at 90 min, 10 μM [5] | Compound | Caco PappAB ([6]; Caco-2 apical to basolateral permeability, pH 7.4) [×10⁻⁶ cm/s] | Caco ER ([6]; Caco-2 efflux ratio PappBA/PappAB)
1 | 17 | 11 | 24 | 85 | 23 | 1.6 | C[C@H](Oc1nc(-c2noc3c2CCC[C@@]32CCCc3sc(N)c(C#N)c32)nc2c1COC[C@]21CCOC1)[C@@H]1CCCN1C [II-8] | – | –
2 | 117 | 35 | 80 | 101 | 25 | 1.8 | C[C@H](Oc1nc(-c2noc3c2CCC[C@@]32CCCc3sc(N)c(C#N)c32)nc2c1CCO[C@]21CCOC1)[C@@H]1CCCN1C [II-9b] | – | –

More lines, now with the values behind:

Row | Compound | IC50 [1] [nM] | IC50 [2] [nM] | IC50 [3] [nM] | MBI 3A4 [4] [%] | Papp A→B at 90 min, 10 μM [5] [×10⁻⁶ cm/s] | efflux ratio at 90 min, 10 μM [5] | Caco PappAB ([6]; Caco-2 apical to basolateral permeability, pH 7.4) [×10⁻⁶ cm/s] | Caco ER ([6]; Caco-2 efflux ratio PappBA/PappAB)
3 | C[C@H](Oc1nc(-c2onc3c2CCC[C@@]32CCCc3sc(N)c(C#N)c32)nc2c1n(C)c(=O)n2[C@@H]1CCOC1)C12CCCN1CCC2 [I-25] | 53 | 26 | 53 | 60 | 2.9 | 18.6 | – | –
4 | C[C@H](Oc1nc(-c2onc3c2CCC[C@@]32CCCc3sc(N)c(C#N)c32)nc2c1n(C)c(=O)n2[C@@H]1CCOC1)[C@@H]1CC[C@H](C)N1C [I-26] | 58 | 22 | 50 | 83 | 43 | 1 | – | –
5 | C[C@H](Oc1nc(-c2onc3c2CCC[C@@]32CCCc3sc(N)c(C#N)c32)nc2c1n(C)c(=O)n2[C@@]12COC[C@@H]1C2)[C@@H]1CCCN1C [I-29] | 85 | 18 | 37 | 79 | 19 | 2.5 | – | –
6 | C[C@H](Oc1nc(-c2noc3c2CCC[C@@]32CCCc3sc(N)c(C#N)c32)nc2c1CC[C@]21CNCCO1)[C@@H]1C[C@@H](F)CN1C [II-20] | 82 | 129 | 815 | 95 | – | – | 0.3 | 303.8
